In paper PMC3933250 (Annals of Oncology, 2014):

Experiments:
[1] = Cilengitide pharmacokinetic profile in plasma during cycle 1; assay type: in vivo, human; details: PFE + CIL1W and PFE + CIL2W groups
R/M-SCCHN patients = details: ≤2000 mg cilengitide plus PFE, phase I part; cited from earlier work

CC(C)[C@H]1C(=O)N[C@@H](CCCN=C(N)N)C(=O)NCC(=O)N[C@@H](CC(=O)O)C(=O)N[C@H](Cc2ccccc2)C(=O)N1C [cilengitide, Cilengitide]
Influence of the different cilengitide dosing on cetuximab exposure [1]: no clinically relevant influence
Dose-limiting or unexpected toxicities (R/M-SCCHN patients): no dose-limiting or unexpected toxicities
